According to patent US10077209B2, “Glazing unit comprising a hydrophilic layer having an improved scratch resistance” (SAINT-GOBAIN GLASS FRANCE, priority 2013, dated 2018):

Assay: Solubility of bis-urea monomers in diacetone alcohol (DAA)
Type: physicochemical
Details: solvent diacetone alcohol
Description: Three bis-urea monomers were synthesized from toluene-2,4-diisocyanate (TDI) on the one hand, 6-amino-1-hexanol, 2-amino-1-butanol and 2-aminopropanol on the other hand, all purchased from Aldrich. The TDI was stored at 4° C. with the aim of preventing side reactions. The dichloromethane was obtained from VWR and distilled and dried before use. The table below indicates the No. assigned to each bis-urea in the rest of the example, the starting products for its synthesis, a schematic representation of its formula and its solubility in DAA.

SMILES	Solubility in DAA [% by wt.]
Cc1ccc(NC(=O)NCC(C)O)cc1NC(=O)NCC(C)O (stereo not drawn) [Bis-urea1]	8
CCC(CO)NC(=O)Nc1ccc(C)c(NC(=O)NC(CC)CO)c1 (stereo not drawn) [Bis-urea5]	2.4
Cc1ccc(NC(=O)NCCCCCCO)cc1NC(=O)NCCCCCCO [Bis-urea4]	7.5
